According to patent US20220404341A1, “METHODS AND APPARATUS FOR MEASURING IMMUNE MEDIATED TUMOROID RESPONSES” (VITROSCAN B.V., priority 2019, published 2022):

Columns and labels:
Type in all cases: cell-based, human
[1] = test system: IFN-γ; assay: IFN-γ production in treated patient derived tumour cultures; conditions: FIG. 7; IFN-γ is secreted by activated T-cells
[2] = test system: patient derived tumour cultures; assay: Selection Factor (tumoroids' area decrease) across patient samples; conditions: for immune reaction reducing the number of tumour cells (Selection Factor metric across samples): FIGS. 8 and 9, alone or in combination, naïve patient sample; for Tumoroids' area decrease (%) as Selection Factor, effect when used alone: experiments shown in FIG. 8
[3] = test system: lung tumour sample; assay: ex vivo 3D patient derived tumour culture with 3D imaging, lung tumour sample; conditions: FIG. 6
[4] = test system: ovarian cancer tumoroids; assay: ex vivo 3D patient derived tumour culture with 3D imaging, ovarian cancer samples; conditions: for area size of small objects: FIG. 5 (same sample as FIG. 4)
[5] = test system: Mesothelioma tumour sample; assay: ex vivo 3D patient derived tumour culture with 3D imaging, mesothelioma sample; conditions: FIG. 3

For ipilimumab, the IFN-γ production [1] was “increased”, the “immune reaction reducing the number of tumour cells (Selection Factor metric across samples)” value [2] was “able to start an immune reaction that effectively reduced the number of tumour cells” and the “immune-mediated tumoroid killing effect” value [3] was “immune-mediated tumoroid killing effect”. The “activating native immune cells to kill tumoroids (total area of objects larger than 422 μm^2 and of objects smaller than 160 μm^2)” value ([4]; ovarian cancer samples of FIG. 1, one-sided Wilcoxon test) was “effective in activating native immune cells to kill ovarian cancer tumoroids”, the “activating native immune cells to kill tumoroids” value ([4]; ovarian cancer samples of FIG. 2) was “does not show effectiveness in activating native immune cells to kill tumoroids” and the “immune-mediated tumoroid killing effect” value [5] was “immune-mediated tumoroid killing effect”.

In the case of `Nc1ncnc2c1ncn2[C@@H]1O[C@@H]2COP(=O)([S-])O[C@@H]3[C@H](O)[C@@H](COP([O-])(=S)O[C@H]2[C@H]1O)O[C@H]3n1cnc2c(N)ncnc21.[Na+].[Na+]` (stereo partly shown) [ADU-S100], the “area size of small objects” value ([4]; ovarian tumour sample) was “area size increase of small objects”.

In the case of pembrolizumab, the “immune reaction reducing the number of tumour cells (Selection Factor metric across samples)” value [2] was “able to start an immune reaction that effectively reduced the number of tumour cells”, the “Tumoroids' area decrease (%) as Selection Factor, effect when used alone” value [2] was “do not show any effect when used alone” and the “immune-mediated tumoroid killing effect” value [3] was “immune-mediated tumoroid killing effect”. The “immune-mediated tumoroid killing effect (area size reduction of tumoroid clusters)” value ([4]; ovarian tumour sample, FIG. 4) was “immune-mediated tumoroid killing effect” and the “area size of small objects” value ([4]; ovarian tumour sample) was “area size increase of small objects”.

For `O=C(c1cc(Cc2n[nH]c(=O)c3ccccc23)ccc1F)N1CCN(C(=O)C2CC2)CC1` [olaparib], the “immune reaction reducing the number of tumour cells (Selection Factor metric across samples)” value [2] was “able to start an immune reaction that effectively reduced the number of tumour cells”.

For nivolumab, the “immune reaction reducing the number of tumour cells (Selection Factor metric across samples)” value [2] was “able to start an immune reaction that effectively reduced the number of tumour cells”, the “Tumoroids' area decrease (%) as Selection Factor, effect when used alone” value [2] was “do not show any effect when used alone” and the “immune-mediated tumoroid killing effect” value [3] was “immune-mediated tumoroid killing effect”.
